The test system of data set [1] is Human immunodeficiency virus 1. Kind of data set: Inhibition of HIV-cell fusion was determined at 10 uM by using cellular FIGS assay; Inactive. The data set is classed as functional, organism-based.
Data set [2] can be described thus: Toxicity against HIV cells. In kind it is cell-based. The settings on record: human immunodeficiency virus 1.
Data set [3] relates to Human immunodeficiency virus 1. Kind of data set: Inhibition of HIV-specific CD4-gp120 interaction was determined using recombinant protein. In kind it is functional.
Data set [4] relates to C8166. Kind of data set: Inhibition of HIV-1 IIIB infections in C8166 cell lines was determined; 4-8 uM. The settings on record: Homo sapiens. In kind it is functional, cell-based.
Data set [5] is described as follows: Therapeutic index in C8166 cell lines was determined. The settings on record: human, C8166 cells; read-out: TC50 (the source's name). In kind it is cell-based.
Data set [6] relates to Human immunodeficiency virus 1. Kind of data set: Inhibition of HIV-cell fusion was determined by using cellular FIGS assay. In kind it is functional, organism-based.
In data set [7] the test system is C8166. Briefly: Inhibition of HIV-1 IIIB infections in C8166 cell lines was determined; Range is 4-8 uM. In kind it is functional, cell-based. The settings on record: Homo sapiens.

As to `N=C(N)c1cccc(Oc2ccccc2)c1`, in data set [1], the IC50 (commonly the midpoint of a concentration-inhibition curve) is “Not Active”. This compound also registered an Activity in data set [2] of 100 µM.

`N=C(N)c1cccc(OCc2ccc(OCc3ccccc3)cc2)c1`: the IC50 entry in data set [1] was “Not Active”. In data set [2], this compound gave an Activity of 100 µM.

Consider `N=C(N)Nc1cccc(OCc2ccc(Cl)cc2)c1.O=C(O)C(F)(F)F`, for which the IC50 entry in data set [1] is given as “Not Active”. In data set [2], this compound came in with an Activity of 100 µM.

Regarding `Cl.N=C(N)Nc1cccc(OCc2ccccc2)c1`, the Inhibition in data set [3] was 5 mM. For the same compound, in the data set on C8166 [4], the midpoint of the response, the EC50, lay at 8 µM. In addition, the CC50 in data set [5] is 40 µM. In data set [6], this compound gave an IC50 of 131 µM.

Regarding `Cl.N=C(N)Nc1cccc(Oc2ccccc2)c1`, the Inhibition in data set [3] worked out at 5 mM. Moreover, a half-maximal effect with C8166 [7] (EC50) was put at 8 µM. Moreover, the CC50 in data set [5] worked out at 20 µM. In data set [6], this compound returned an IC50 of 167 µM.

Turning to `Cc1ccc(COc2cccc(C(=N)N)c2)cc1`, in data set [1], the IC50 result is on record as “Not Active”. The compound also displayed an Activity in data set [2] of 100 µM.

For the compound `N=C(N)Nc1cccc(OCc2ccc(Br)cc2)c1.O=C(O)C(F)(F)F`, the IC50 result in data set [1] is on record as “Not Active”. In data set [2], this compound showed an Activity of 100 µM.

On to `N=C(N)c1cccc(OCc2ccc(Cl)cc2)c1`, for which the IC50 entry in data set [1] was “Not Active”. This compound displayed an Activity in data set [2] of 100 µM.

Turning to `N=C(N)c1cccc(OCc2ccccc2)c1`, the IC50 result in data set [1] is given as “Not Active”. Also, the Activity in data set [2] turned out to be 100 µM.

As to `N=C(N)c1cccc(OCc2cccc([N+](=O)[O-])c2)c1`, in data set [1], the IC50 result is “Not Active”. The Activity in data set [2] worked out at 100 µM.

Consider `N=C(N)c1cccc(OCc2ccc(Br)cc2)c1`, for which the IC50 entry in data set [1] is listed as “Not Active”. In data set [2], this compound yielded an Activity of 100 µM.

These data come from ChEMBL document CHEMBL1146750, “Design, synthesis and evaluation of potential inhibitors of HIV gp120-CD4 interactions” (Bioorg Med Chem Lett, 2004).
